Test results from patent US8673914B2, “Use of phosphodiesterase inhibitors for treating multidrug resistance” (St. John's University, priority 2011, dated 2014).

Legend:
HEK/MRP7 = test: MTT cytotoxicity assay (Example 4); format: cell-based;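 further: drug IC50 in HEK/MRP7 divided by IC50 in parental HEK293-pcDNA3.1 cells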
Protocol: (§1) The MRP7 cDNA was generously provided by Dr. Gary Kruh (University of Illinois, Chicago, Ill.) and inserted into the pcDNA3.1 expression vector. […] Individual colonies were selected in medium containing G418 (1 mg/ml) and cultured for further analysis.
(§2) MTT colorimetric assay was performed to analyze the drug sensitivity as previously described (Shi et al. (2007) Cancer Res. 67:11012-20). HEK293-pcDNA3.1 and HEK/MRP7 cells were seeded into 96-well plates in triplicate at 6000 cells/well.
(§3) After drug incubation of 68 h, 20 μl MTT solution (4 mg/ml) was added into each well. […] The Bliss method was used to calculate the IC50 values according to survival curves.

HEK 293-pcDNA-3.1 = test: MTT cytotoxicity assay (Example 4); format: cell-based; conditions: HEK 293-pcDNA-3.1
Protocol: as §1, §2, §3

KB-C2 cells (ABCB1) = test: [^3H]-paclitaxel accumulation (Example 1); format: cell-based, human; conditions: 10 μM
Protocol: The intracellular accumulation of [^3H]-paclitaxel was measured as follows. […] Intracellular paclitaxel accumulation was measured by incubating cells with 0.1 μM [^3H]-paclitaxel for 2 h in the presence or absence of the reversal agents at 37° C. The cells were washed three times with ice-cold PBS, then suspended in fresh medium with or without reversal agents at 37° C. Aliquots of the extracellular medium (40 μl) were collected at various time points (0, 60, 120 min), and finally the cells were collected and lysed in 10 mM lysis buffer (pH 7.4, containing 1% Triton X-100 and 0.2% SDS). Each sample was placed in scintillation fluid and the radioactivity was measured in a Packard TRI-CARB1 1900CA liquid scintillation analyzer from Packard Instrument Company, Inc. (Downers Grove, Ill.).

HEK/MRP7 cells [1] = test: [^3H]-paclitaxel efflux (Example 4); format: cell-based; conditions: 5 μM PDE5 inhibitor
Protocol: (§4) The effect of PDE5 inhibitors on the intracellular accumulation of paclitaxel in HEK293-pcDNA3.1 and HEK/MRP7 cells was measured using [^3H]-paclitaxel. […] For efflux studies, the cells were treated the same as in the drug accumulation study, and then washed three times with ice-cold PBS, and suspended in fresh medium with or without PDE5 inhibitors. Aliquots were evenly collected at various time points (0, 30, 60, and 120 min). Samples from both accumulation and efflux experiments were washed with ice-cold PBS three times and placed in scintillation fluid, and the radioactivity was measured in a Packard TRI-CARB® 1900CA liquid scintillation analyzer from Packard Instrument Company, Inc. (Downers Grove, Ill.).

HEK/ABCB1 (ABCB1) = test: MTT cytotoxicity/reversal assay (Example 1); conditions: HEK/ABCB1
Protocol: The KB-C2 and KB-3-1 were kindly provided by Dr. Akiyama (Kagoshima University, Japan). […] Similarly, the HEK/MRP1 (ABCC1) and HEK/ABCB1 cells were generated by transfecting the HEK293 cells with either the MRP1 expression vector or the ABCB1 expression vector. All of the cell lines were grown in Dulbecco's modified Eagle's medium (DMEM) supplemented with 10% bovine serum, 100 units/ml penicillin, and […] streptomycin in a humidified incubator containing 5% CO2 at 37° C.
(§5) The MTT assay was used to assess cytotoxicity. The cultured cells were harvested with trypsin and resuspended in a final concentration of 4×10^3 cells/well for KB-3-1; 7.5×10^3 cells/well for KB-C2; and 8×10^3 for all of the other cell lines used in this study. Cells were seeded evenly in 96-well multiplates. […] After 68 h of incubation, 20 μl of the MTT solution (4 mg/ml) was added to each well, and the plate was further incubated for 4 h at 37° C., allowing viable cells to convert the yellow-colored MTT into dark-blue formazan crystals. Subsequently, the medium was discarded, and 100 μl of DMSO was added into each well to dissolve the formazan crystals, generating purple color. The absorbance was determined at 570 nm by an OPSYS Microplate Reader from DYNEX Technologies, Inc. (Chantilly, Va.). […] The degree of the reversal of multidrug resistance (MDR) was calculated by dividing the IC50 of an anticancer drug, e.g., an antineoplastic or chemotherapeutic drug (agent, compound), in a cell type in the absence of a reversal agent by the IC50 of the anticancer drug in the same cell type in the presence of the reversal agent. The IC50 values were calculated from survival curves using the Bliss method.

HEK293/pcDNA3.1 = test: MTT cytotoxicity/reversal assay (Example 1); format: cell-based
Protocol: (§6) The KB-C2 and KB-3-1 were kindly provided by Dr. Akiyama (Kagoshima University, Japan). HEK293-pcDNA3.1 and wild-type HEK/ABCG2 transfected cells were established by selection with G418 after transfecting HEK293 with either (1) empty pcDNA3.1 vector or (2) pcDNA3.1 vector containing full length of ABCG2 coding arginine (R) at amino acid position 482, and were then cultured in a medium with 2 mg/ml of G418 (ABCG2-482-R2 cells). Similarly, the HEK/MRP1 (ABCC1) and HEK/ABCB1 cells were generated by transfecting the HEK293 cells with either the MRP1 expression vector or the ABCB1 expression vector. All of the cell lines were grown in Dulbecco's modified Eagle's medium (DMEM) supplemented with 10% bovine serum, 100 units/ml penicillin, and […] streptomycin in a humidified incubator containing 5% CO2 at 37° C.
as §5

KB-3-1 = test: MTT cytotoxicity/reversal assay (Example 1); format: cell-based, human
Protocol: as §6, §5

KB-C2 (ABCB1) = test: MTT cytotoxicity/reversal assay (Example 1); format: cell-based, human
Protocol: as §6, §5

HEK/MRP7 cells [2] = test: [^3H]-paclitaxel accumulation (Example 4); format: cell-based; conditions: 5 μM, 2 h
Protocol: as §4

[3] = HEK293/pcDNA3.1 (Table 6), +10 μM reversal agent
[4] = HEK293/pcDNA3.1, +5 μM reversal agent
[5] = HEK293/pcDNA3.1, +10 μM reversal agent

CN1CC(=O)N2[C@H](c3ccc4c(c3)OCO4)c3[nH]c4ccccc4c3C[C@@H]2C1=O [Tadalafil, tadalafil]
fold-resistance, docetaxel (HEK/MRP7; +1.25 μM reversal agent): (10.91) | fold-resistance, paclitaxel (HEK/MRP7; +1.25 μM reversal agent): (8.06) | fold-resistance, vinblastine (HEK/MRP7; +1.25 μM reversal agent): (4.58) | fold-resistance, cisplatin (HEK/MRP7; +5 μM reversal agent): (1.12) | fold-resistance, docetaxel (HEK/MRP7; +5 μM reversal agent): (8.35) | fold-resistance, paclitaxel (HEK/MRP7; +5 μM reversal agent): (5.87) | fold-resistance, vinblastine (HEK/MRP7; +5 μM reversal agent): (3.62) | fold-resistance, docetaxel (HEK 293-pcDNA-3.1; +1.25 μM reversal agent): (1.09) | fold-resistance, paclitaxel (HEK 293-pcDNA-3.1; +1.25 μM reversal agent): (1.07) | fold-resistance, vinblastine (HEK 293-pcDNA-3.1; +1.25 μM reversal agent): (1.06) | fold-resistance, cisplatin (HEK 293-pcDNA-3.1; +5 μM reversal agent): (1.11) | fold-resistance, docetaxel (HEK 293-pcDNA-3.1; +5 μM reversal agent): (1.02) | fold-resistance, paclitaxel (HEK 293-pcDNA-3.1; +5 μM reversal agent): (0.93) | fold-resistance, vinblastine (HEK 293-pcDNA-3.1; +5 μM reversal agent): (0.95) | effect on paclitaxel accumulation (KB-C2 cells (ABCB1)): had significant effects on paclitaxel accumulation | percentage of intracellular [^3H]-paclitaxel (HEK/MRP7 cells [1]; 30 min): 76.44% | percentage of intracellular [^3H]-paclitaxel (HEK/MRP7 cells [1]; 60 min): 63.41% | percentage of intracellular [^3H]-paclitaxel (HEK/MRP7 cells [1]; 120 min): 46.48% | fold reversal, cisplatin (HEK/ABCB1 (ABCB1); +5 μM reversal agent): (0.94) | fold reversal, paclitaxel (HEK/ABCB1 (ABCB1); +5 μM reversal agent): (1.37) | fold reversal, vincristine (HEK/ABCB1 (ABCB1); +5 μM reversal agent): (1.50) | fold reversal, cisplatin (HEK/ABCB1 (ABCB1); +10 μM reversal agent): (1.09) | fold reversal, paclitaxel (HEK/ABCB1 (ABCB1); +10 μM reversal agent): (2.26) | fold reversal, vincristine (HEK/ABCB1 (ABCB1); +10 μM reversal agent): (2.45) | fold reversal, vincristine (HEK293/pcDNA3.1; [3]): (1.09) | fold reversal, cisplatin (HEK293/pcDNA3.1; [4]): (0.99) | fold reversal, paclitaxel (HEK293/pcDNA3.1; [4]): (0.99) | fold reversal, vincristine (HEK293/pcDNA3.1; [4]): (1.15) | fold reversal, SN-38 (HEK293/pcDNA3.1; [5]): (0.96) | fold reversal, cisplatin (HEK293/pcDNA3.1; [5]): (1.12) | fold reversal, paclitaxel (HEK293/pcDNA3.1; [5]): (1.21) | fold reversal, vincristine (HEK293/pcDNA3.1; [5]): (1.35) | fold reversal, cisplatin (KB-3-1; +5 μM reversal agent): (0.96) | fold reversal, colchicine (KB-3-1; +5 μM reversal agent): (0.86) | fold reversal, paclitaxel (KB-3-1; +5 μM reversal agent): (0.93) | fold reversal, cisplatin (KB-3-1; +10 μM reversal agent): (1.06) | fold reversal, colchicine (KB-3-1; +10 μM reversal agent): (0.89) | fold reversal, paclitaxel (KB-3-1; +10 μM reversal agent): (1.02) | fold reversal, cisplatin (KB-C2 (ABCB1); +5 μM reversal agent): (1.01) | fold reversal, colchicine (KB-C2 (ABCB1); +5 μM reversal agent): (4.19) | fold reversal, paclitaxel (KB-C2 (ABCB1); +5 μM reversal agent): (2.53) | fold reversal, cisplatin (KB-C2 (ABCB1); +10 μM reversal agent): (0.93) | fold reversal, colchicine (KB-C2 (ABCB1); +10 μM reversal agent): (6.38) | fold reversal, paclitaxel (KB-C2 (ABCB1); +10 μM reversal agent): (4.48) | increase of intracellular accumulation of [^3H]-paclitaxel (HEK/MRP7 cells [2]): 2.1 fold

CCCc1nc(C)c2c(=O)[nH]c(-c3cc(S(=O)(=O)N4CCN(CC)CC4)ccc3OCC)nn12 [Vardenafil, vardenafil]
fold-resistance, docetaxel (HEK/MRP7; +1.25 μM reversal agent): (5.56) | fold-resistance, paclitaxel (HEK/MRP7; +1.25 μM reversal agent): (2.99) | fold-resistance, vinblastine (HEK/MRP7; +1.25 μM reversal agent): (3.01) | fold-resistance, cisplatin (HEK/MRP7; +5 μM reversal agent): (1.09) | fold-resistance, docetaxel (HEK/MRP7; +5 μM reversal agent): (1.19) | fold-resistance, paclitaxel (HEK/MRP7; +5 μM reversal agent): (1.06) | fold-resistance, vinblastine (HEK/MRP7; +5 μM reversal agent): (1.11) | fold-resistance, docetaxel (HEK 293-pcDNA-3.1; +1.25 μM reversal agent): (1.0) | fold-resistance, paclitaxel (HEK 293-pcDNA-3.1; +1.25 μM reversal agent): (0.93) | fold-resistance, vinblastine (HEK 293-pcDNA-3.1; +1.25 μM reversal agent): (0.96) | fold-resistance, cisplatin (HEK 293-pcDNA-3.1; +5 μM reversal agent): (1.07) | fold-resistance, docetaxel (HEK 293-pcDNA-3.1; +5 μM reversal agent): (0.80) | fold-resistance, paclitaxel (HEK 293-pcDNA-3.1; +5 μM reversal agent): (0.79) | fold-resistance, vinblastine (HEK 293-pcDNA-3.1; +5 μM reversal agent): (0.85) | increase of intracellular accumulation of paclitaxel (KB-C2 cells (ABCB1)): 1.6 fold | percentage of intracellular [^3H]-paclitaxel (HEK/MRP7 cells [1]; 30 min): 95.34% | percentage of intracellular [^3H]-paclitaxel (HEK/MRP7 cells [1]; 60 min): 93.58% | percentage of intracellular [^3H]-paclitaxel (HEK/MRP7 cells [1]; 120 min): 63.92% | fold reversal, cisplatin (HEK/ABCB1 (ABCB1); +5 μM reversal agent): (0.95) | fold reversal, paclitaxel (HEK/ABCB1 (ABCB1); +5 μM reversal agent): (3.86) | fold reversal, vincristine (HEK/ABCB1 (ABCB1); +5 μM reversal agent): (4.10) | fold reversal, cisplatin (HEK/ABCB1 (ABCB1); +10 μM reversal agent): (1.09) | fold reversal, paclitaxel (HEK/ABCB1 (ABCB1); +10 μM reversal agent): (8.69) | fold reversal, vincristine (HEK/ABCB1 (ABCB1); +10 μM reversal agent): (11.60) | fold reversal, vincristine (HEK293/pcDNA3.1; [3]): (0.92) | fold reversal, cisplatin (HEK293/pcDNA3.1; [4]): (1.06) | fold reversal, paclitaxel (HEK293/pcDNA3.1; [4]): (1.09) | fold reversal, vincristine (HEK293/pcDNA3.1; [4]): (0.88) | fold reversal, SN-38 (HEK293/pcDNA3.1; [5]): (1.10) | fold reversal, cisplatin (HEK293/pcDNA3.1; [5]): (1.00) | fold reversal, paclitaxel (HEK293/pcDNA3.1; [5]): (1.18) | fold reversal, vincristine (HEK293/pcDNA3.1; [5]): (1.19) | fold reversal, cisplatin (KB-3-1; +5 μM reversal agent): (0.89) | fold reversal, colchicine (KB-3-1; +5 μM reversal agent): (0.90) | fold reversal, paclitaxel (KB-3-1; +5 μM reversal agent): (0.89) | fold reversal, cisplatin (KB-3-1; +10 μM reversal agent): (0.93) | fold reversal, colchicine (KB-3-1; +10 μM reversal agent): (0.93) | fold reversal, paclitaxel (KB-3-1; +10 μM reversal agent): (0.92) | fold reversal, cisplatin (KB-C2 (ABCB1); +5 μM reversal agent): (0.87) | fold reversal, colchicine (KB-C2 (ABCB1); +5 μM reversal agent): (27.6) | fold reversal, paclitaxel (KB-C2 (ABCB1); +5 μM reversal agent): (26.2) | fold reversal, cisplatin (KB-C2 (ABCB1); +10 μM reversal agent): (0.96) | fold reversal, colchicine (KB-C2 (ABCB1); +10 μM reversal agent): (184.8) | fold reversal, paclitaxel (KB-C2 (ABCB1); +10 μM reversal agent): (54.1) | increase of intracellular accumulation of [^3H]-paclitaxel (HEK/MRP7 cells [2]): 3.7 fold
